For 88 molecules, melting point results are on record in a melting point compilation (Tetko et al.; mined from patent text by program, amines drawn as free bases though some values may be those of a salt).

`CC(C)(C)OC(=O)N1[C@@H](CC2CCCCC2)[C@H](CC2SCCCS2)OC1(C)C`: the melting point (as a rule, the temperature, or range, at which the solid turns liquid) lay in the range of 104 to 106 °C.
For the molecule `Cc1cc2c(c3occ(-c4ccc(C(C)C)cc4)c13)CCC2`, the melting point was 70 to 72 °C.
`Cc1ccc(Cc2cnc(NCCSCc3cccc(CN(C)C)c3)[nH]c2=O)cn1` registered a melting point of 122 to 125 °C.
In the case of `Cc1ccc(C(=O)c2cc(-c3cccnc3)c(N3CCOCC3)s2)cc1` it was 134 °C; in that of `COC(=O)c1ccc(NCc2cc(O)ccc2O)cc1`, 175 °C; in that of `c1ccc2c(c1)ccn2Nc1ncnc2c1ncn2-n1ccc2ccccc21`, 196 to 198 °C.
As to `CN(C(=O)c1ccc2nonc2c1)[C@H]1CC[C@H](n2ncnn2)CC1`, the melting point lay in the range of 172 to 175 °C.
As for `O=[N+]([O-])c1ccc(Oc2c(Cl)cc(C(F)(F)F)cc2Cl)cc1SCc1ccccc1`, the melting point was determined as 207 °C.
`O=C(NCCO)c1cccc(-c2cccc3nn(Cc4cccc(C(F)(F)F)c4)cc23)n1` gave a melting point of 150 to 151 °C.
`CC(C)n1ccc(-c2ccc([C@H](C)N3CC[C@](CC(C)(C)O)(c4ccccc4)OC3=O)cc2)cc1=O` returned a melting point of 134 to 139 °C.
Turning to `Cc1cc(C)nc(Oc2ccc(-c3ccn(CC4CC4)c(=O)c3C#N)c(F)c2)c1`, the melting point was found to be 137 °C.
`NC(=S)NN=C(CCCOC(=O)Nc1ccccc1)c1ccccc1` had a melting point of 140 to 142 °C.
As to `CCCC(=O)c1cnc2cc(Nc3ccc(O)cc3C)sc2c1`, the melting point was 228 to 230 °C.
In the case of `CCc1ccc2c(c1)C=Cc1cc(C)ccc1C2c1cn(Cc2ccc(C(=O)O)o2)c(=O)[nH]c1=O` (stereo not drawn) it was 253 °C.
The molecule `O=S1(=O)c2ccccc2Nc2nccnc21` came in with a melting point of 316 to 318 °C.
In the case of `O=c1[nH][nH]c(=O)n1CCCl` it was 192 to 193 °C.
Regarding `Cc1ccccc1CNc1cc(Br)cc2c1nc(C)n2C`, the melting point lay in the range of 128 to 129 °C.
In the case of `O=C(O)c1cccc2c1CCCC2O` (stereo not drawn) it was 160 to 162 °C; in that of `CCn1c(-c2ccc(OC)c(OC)c2)cc(=O)n(CC)c1=O`, 104 to 107 °C.
For `Oc1cc(O)c2c(-c3cc(F)cc(F)c3)coc2c1` the value was 149 to 151 °C; for `O=C1CCC(n2cnc(-c3ccc(F)cc3)c2-c2ccnc(OCCO)n2)CC1`, 203 to 205 °C; for `COc1cc(C(C)=O)ccc1OCCCN1CCC(C(O)(c2ccccc2)c2ccc(F)cc2)CC1` (stereo not drawn), 147 to 148 °C.
Regarding `NC(=O)c1cc2c(Oc3ccc(C(F)(F)F)cc3)cnc(Cl)c2s1`, the melting point is 175 to 176 °C.
In the case of `CCOC(=O)c1cn2c3c(c(F)c(F)cc3c1=O)OCC2C` (stereo not drawn), the melting point lay in the range of 257 to 258 °C.
In turn, `CCN(CC)C(=O)c1ccc(C)c(-c2nc(SC)nc3c2CNC(=O)N3c2c(F)cccc2F)c1` returned a melting point of 127 to 129 °C.
On to `N#Cc1cc(F)c(NC(=O)C(F)(F)F)c(F)c1`, for which the melting point was in the range of 134 to 135 °C.
In the case of `COC(=O)N(COc1ccc(Cl)cc1Cl)c1ccc(Cl)cc1`, the melting point lay within 70 to 80 °C.
`CC(C)(C)OC(=O)CC[C@H](NC(=O)c1ccc(N(CCCl)CCCl)cc1F)C(=O)OC(C)(C)C` yielded a melting point of 90 to 92 °C.
Turning to `CC(=O)N1CCN(c2ccc(Nc3nccc(-c4sc(-c5cccnc5)nc4C)n3)cc2)CC1`, the melting point is 123 to 125 °C.
For `COc1c(C)cnc(CSc2nc3ncccc3[nH]2)c1C` the value was 186 to 188 °C; for `O=C1[C@@H]2C[C@H](OCc3ccc4cnccc4c3)CN2C(=O)N1c1cc(Cl)cc(Cl)c1`, 144 °C; for `COC(=O)c1c(Oc2nc(OC)cc(OC)n2)ccc2ncccc12`, 160 to 162 °C.
Take `Cn1nc(Cl)c(C2=NOCCO2)c1S(N)(=O)=O`: the melting point amounted to 158 °C.
`CCCCOCCOc1ccc(-c2ccc3c(c2)C=C(C(=O)Nc2ccc(S(=O)Cc4nncn4CCC)nc2)CCN3CC(C)C)cc1` (stereo not drawn): the melting point is 135 to 138 °C.
For the molecule `COC(=O)c1ccc(OCC(O)c2ccc3c(c2)C(C)(C)CCS3)cc1O` (stereo not drawn), the melting point lay within 113 to 115 °C.
In turn, `CCOC(=O)c1c(C)cc(NC(C)=O)c(C(=O)O)c1C` gave a melting point of 170 to 171 °C.
For `CCOC(=O)Nc1ccc(N2CCN([C@H](C)[C@](O)(Cn3cncn3)c3ccc(F)cc3F)CC2)cc1`, the melting point is 90 to 92 °C.
On to `COc1ccccc1Cc1n[nH]c2c1c(=O)n(-c1cccc(OC(F)(F)F)c1)c1ncccc21`, for which the melting point fell in the range of 243 to 245 °C.
In the case of `Cc1noc(-c2ccccc2)c1/C=C/C(=O)O` it was 173 to 174 °C.
Turning to `Cc1nc(N)nc(N)c1CCCc1ccccc1C(F)(F)F`, the melting point fell in the range of 151 to 158 °C.
For `O=C(c1ccccc1)c1ccc(OCCCCCCBr)cc1` the value was 47 to 49 °C.
Molecule `O=[N+]([O-])c1ccc(OCCN2CCN(c3cc(Cl)nnc3Cl)CC2)cc1` showed a melting point of 128 to 129 °C.
`COc1c(Br)c(CO)c(OC)c2ccccc12` displayed a melting point of 115 to 117 °C.
In turn, `CC1(C(=O)Cn2cncn2)COCOC1` had a melting point of 95 to 97 °C.
`CCOC(=O)c1ccccc1NC(=O)CN1C(=O)c2ccccc2C1=O` gave a melting point of 187 °C.
The molecule `NC(=O)Cc1ccc2c(c1)C(=O)Cc1ccccc1S2` yielded a melting point of 171 to 172 °C.
`Cc1nn(CC(O)c2ccc(Cl)cc2)c(=O)n1-c1ccc(N2CCN(c3ccc(O)cc3)CC2)cc1` (single isomer, unassigned; (+)) registered a melting point of 249 °C.
In the case of `COc1ccc2[nH]c3c(c2c1)CCS(=O)(=O)CCC3` it was 231 to 233 °C.
In the case of `Nc1ncnc2c1c(-c1ccc(Oc3ccccc3)cc1)cn2C1CCNC1` (stereo not drawn) it was 182 to 184 °C.
With `Cn1cc(-c2ccccc2)c(=O)c(-c2ccc(Cl)cc2)c1`, the melting point is 142 °C.
As for `Cc1nc2ccc(Cl)cn2c(=O)c1CCN1CCN(c2cccc(Cl)c2)CC1`, the melting point was 152 to 154 °C.
Regarding `O=C1NC(=O)C(Cc2ccccc2)C(=O)N1`, the melting point is 207 to 209 °C.
In the case of `CCCCN(CCCC)c1ccc(C=CC2=C(OC)C(=CC=CC3=C(C#N)C(=C(C#N)C#N)OC3(C)C)CC(C)(C)C2)c(OC)c1` it was 244 to 246 °C.
In turn, `O=C(NS(=O)(=O)c1c(F)cccc1F)N1CCC=N1` yielded a melting point of 183 °C.
For the molecule `O=C(O)Cn1cc(-c2ccc3nnn(Cc4ccc5ncccc5c4)c3n2)cn1`, the melting point was over 270 °C.
`Cc1c(C)c(Br)c2ncccc2c1C`: the melting point was 180 °C.
The molecule `COc1cccc(Nc2n[nH]c3ncn(-c4cccc(Cl)c4)c(=N)c23)c1` yielded a melting point of 190 to 192 °C.
Consider `C1=C(c2ccccc2)CCN(Cc2cncc(-c3ccccc3)c2)C1`, for which the melting point lay within 80 to 82 °C.
The molecule `Cc1ccc(Oc2ccc(C(=N)NN)cc2)c(O)c1` yielded a melting point of over 260 °C.
For `Cc1nc(NC(=O)c2cnn3c(C(F)F)cc(-c4ccc(C(F)(F)F)cc4)nc23)sc1S(N)(=O)=O` the value was 284 °C; for `CC(C)(C)c1cc(-c2nn(CCCBr)c(=O)o2)cc(C(C)(C)C)c1O`, 130 to 131 °C; for `CC(=O)N(C)Cc1ccc(F)cc1`, 48 to 54 °C.
The molecule `CCCCCCCCCCCCNC(=O)c1cc(-c2ccc(OC)cc2)c(OCC(=O)O)c(-c2cccc(Cl)c2)c1` displayed a melting point of 114 to 117 °C.
`O=C(c1ccccc1F)c1cc2c(c(Cl)c1Cl)OC(C(=O)O)C2` (stereo not drawn): the melting point fell in the range of 180 to 181 °C.
In turn, `C=C1C(=O)NC(=O)N1c1ccccc1` came in with a melting point of 168 to 170 °C.
Turning to `NCC(O)C(Oc1ccc(C(F)(F)F)cc1)c1ccccc1` (stereo not drawn), the melting point lay in the range of 120 to 122 °C.
The molecule `Cc1cnc2c(c1)nc(C)n2-c1ccccc1` had a melting point of 77 to 79 °C.
Molecule `O=Cc1cnn(-c2c(Cl)cc(C(F)(F)F)cc2Cl)n1` returned a melting point of 94 to 95 °C.
`Cc1c2n(c(=O)c3c(O)cccc13)CCCS2`: the melting point fell in the range of 110 to 112 °C.
`Cc1cc(S(N)(=O)=O)cs1` showed a melting point of 102 to 104 °C.
`O=C(NC1(C(=O)O)Cc2ccc(Br)cc2C1)c1cn2cc(-c3ccc(Cl)cc3)ccc2n1` (stereo not drawn) displayed a melting point of 328 °C.
In turn, `CCOCc1nc2c(N)nc3cccnc3c2n1NC(C)C` returned a melting point of 150 to 152 °C.
In turn, `Cc1[nH]c(=O)c(C#N)cc1-c1ccc2ncc(Cl)n2c1` displayed a melting point of over 300 °C.
For `CC1(C)CCSc2ccc(-c3cc(-c4ccc(C(=O)O)cc4)ccc3-c3ccccc3)cc21` the value was 51 °C; for `CN1C(=O)N(Cc2cc(C(F)(F)F)cc(C(F)(F)F)c2)CC1(CCO)c1ccc(Cl)c(Cl)c1` (stereo not drawn), 96 °C; for `O=C(O)/C=C/c1cn(Cc2ccc(OCc3csc(-c4ccccc4)n3)cc2)nc1-c1cccs1`, 137 to 138 °C.
Regarding `CNc1nc(C)c(-c2nc3ccccc3c(=O)n2-c2cccc(C)c2)s1`, the melting point is over 275 °C.
`CN1C(=O)C(CCCN2CCN(c3ccc(F)cc3)CC2)Oc2cc3c(cc21)CCCC3` (stereo not drawn) registered a melting point of 98 to 98.5 °C.
`CC(=O)c1c[nH]c(Cc2ccc(O)cc2)n1` had a melting point of 229 to 231 °C.
In turn, `CNC(=O)NC(=O)C(CC1CCCC1O)c1ccc(Cl)c(Cl)c1` (stereo not drawn) had a melting point of 62 to 64 °C.
As for `O=C(NCCSCc1cccc(F)c1)c1c(Cl)cccc1Cl`, the melting point was in the range of 70 to 72 °C.
In turn, `COc1ccc2c3c1OC1C(O)C(CO)(CO)CC4C(C2)N(C)CCC341` (stereo not drawn) gave a melting point of over 265 °C.
In the case of `Cc1nc2cnccc2n1-c1ccc(OCc2cccc(C(=O)Nc3nc4cc(F)ccc4s3)c2)cc1`, the melting point is 244 to 246 °C.
`Cc1nc(-c2ccc3c(=O)n(CC(C)C)c(CNC(=O)OC(C)(C)C)c(-c4ccccc4)c3c2)sc1C#N`: the melting point lay in the range of 209 to 211 °C.
For `CC(=O)Nc1ccc(/C=C/C(=O)NCC(=O)N(C)c2ccc(Cl)c(CBr)c2Cl)cn1` the value was 222 to 223 °C; for `Cc1ccccc1Nc1nc(Cl)nc2c(C)cccc12`, 125 to 126 °C; for `COc1ccc2c(Cl)c(C(=O)Cl)sc2c1`, 120 to 121 °C.
`CC(=O)N(C)c1cccc(-c2ccnc3c(C(=O)c4ccco4)cnn23)c1`: the melting point was in the range of 210 to 212 °C.
